Results as given in article PMC12356897 (Nature Communications, 2025).

Legend:
[1] = tested on: 11 human cyclins (D1/2/3, E1/2, A1/2, B1/2/3 and F); experiment: SIMBA, cyclin binding and specificity across the cyclin panel; assay type: cell-based; details: result in words; for cyclin specificity in SIMBA: 13-mer peptides centered on P0; for cyclin binding in the tiled library SIMBA screen: tiled 16-mer peptides
human cyclin B1 = experiment: Proteomic peptide phage display; assay type: binding; details: result in words; HD2 library of 16-mer peptides, four selection rounds
human cyclin A2 = experiment: Proteomic peptide phage display; assay type: binding; details: result in words; HD2 library of 16-mer peptides, four selection rounds

Row | Sequence | cyclin specificity in SIMBA [1] | other results
1 | DDIVSKLVFDFVE [DBF4] | bound cyclin B1 specifically | 
2 | HELFQRLDFDNDG [DNAH7] | bound cyclin B1 specifically | 
3 | KAIRKLHFEDE [INSM1] | bind to members of all four families | cyclin binding in the tiled library SIMBA screen [1]: cyclin D1-binding motif
4 | PPARRRLRLSVDE [CDT1] | bound preferentially to cyclin A2 | 
5 | PRARKRLELGNLG [ORC1] | bound preferentially to cyclin A2 | cyclin specificity in SIMBA ([1]; listed as ORC1 RxL): cyclin A-specific
6 | QLRRQLSFSED [MICAL3] |  | cyclin binding in the tiled library SIMBA screen [1]: strong B1-binding motif
7 | SKACRRLFGPVDS [CDKN1A (p21)] | bound all cyclin types except B | 
8 | SLVVGKLSFDSSP [CDC42EP1] | bound cyclin B1 specifically | 
9 | SNARRSLNFGGST [SCAPER] | bound preferentially to cyclin A2 | 
10 | VKTKKRLNFDDKV [CENPC] | bound preferentially to cyclin A2 | 
11 | VSAVQKLDFSDTMVQQ [PKN2 peptide] |  | enrichment in ProP-PD selection, cyclin B1 (human cyclin B1): dominated; enrichment in ProP-PD selection, cyclin A2 (human cyclin A2): dominated
12 | YKVKRRLVFGADD [MuHV-1 M97] | bind to members of all four families | 
